Assay results taken from patent US7414064B2, “4-(3,3-dihalo-allyloxy) phenoxy alkyl derivatives” (Syngenta Crop Protection, Inc., priority 2002, dated 2008).

Tested on: Heliothis virescens
Assay: Action against Heliothis virescens caterpillars (sprayed soybean plants)
Type: in vivo
Settings: 144 h, 400 ppm spray mixture, caterpillars in the first stage, evaluation 6 days later, read-out: percentage reduction in population and percentage reduction in feeding damage (% activity)
Method: Young soybean plants are sprayed with an aqueous emulsion spray mixture comprising 400 ppm of test compound. After the spray-coating has dried, the soybean plants are populated with 10 caterpillars of Heliothis virescens in the first stage and placed in a plastics container. Evaluation is made 6 days later. The percentage reduction in population and the percentage reduction in feeding damage (% activity) are determined by comparing the number of dead caterpillars and the feeding damage on the treated plants with that on the untreated plants.

SMILES | inhibition at 400 ppm [%]
C#CCOC(=O)Nc1ccc(OCCCOc2c(Cl)cc(OCC=C(Cl)Cl)cc2Cl)cc1 [Compound 1.10] | > 80
CCOC(=O)Nc1ccc(OCCCOc2c(Cl)cc(OCC=C(Cl)Cl)cc2Cl)cc1 [Compound 1.4] | > 80
CC(C)(C)OC(=O)Nc1ccc(OCCCOc2c(Cl)cc(OCC=C(Cl)Cl)cc2Cl)cc1 [Compound 1.6, (4-{3-[2,6-Dichloro-4-(3,3-dichloroallyloxy)-phenoxy]-propoxy}-phenyl)-carbamic acid tert-butyl ester] | > 80
COC(=O)Nc1ccc(OCCCOc2c(Cl)cc(OCC=C(Cl)Cl)cc2Cl)cc1 [Compound 1.3] | > 80

Tested on: not given
Assay: not given
Settings: not given

melting point [°C] | SMILES
95 to 97 | O=C(Nc1ccc(OCCCOc2c(Cl)cc(OCC=C(Cl)Cl)cc2Cl)cc1)c1c(F)cccc1F [Compound 1.22]
107 to 111 | O=C(Nc1ccc(OCCCOc2c(Cl)cc(OCC=C(Cl)Cl)cc2Cl)cc1)c1ccccc1Cl [Compound 1.19]
89 to 91 | O=C(Nc1ccc(OCCCOc2c(Cl)cc(OCC=C(Cl)Cl)cc2Cl)cc1)c1ccc(F)cc1F [Compound 1.23]
89 to 92 | Cc1ccccc1C(=O)Nc1ccc(OCCCOc2c(Cl)cc(OCC=C(Cl)Cl)cc2Cl)cc1 [Compound 1.20]
118 to 121 | O=C(Nc1ccc(OCCCOc2c(Cl)cc(OCC=C(Cl)Cl)cc2Cl)cc1)c1ccccc1C(F)(F)F [Compound 1.24]
112 to 114 | O=C(Nc1ccc(OCCCOc2c(Cl)cc(OCC=C(Cl)Cl)cc2Cl)cc1)c1ccccc1Br [Compound 1.21]
108 to 113 | O=C(Nc1ccc(OCCCOc2c(Cl)cc(OCC=C(Cl)Cl)cc2Cl)cc1)c1ccco1 [Compound 1.25]
83 to 90 | O=C(Nc1ccc(OCCCOc2c(Cl)cc(OCC=C(Cl)Cl)cc2Cl)cc1)c1cccs1 [Compound 1.26]
